Measurements from patent publication US20140038884A1, “ANTIVIRAL PEPTIDES” (priority 2011, published 2014).
Where two headings read alike, the source gives them in different places. Ends that are not written are not given here.

Tests used:
PE/CA PJ15 cells [1] = experiment: Cytotoxicity test, Neutral Red Uptake (NRU) method; assay type: cell-based; settings: 50 microM, +24 and +48 hours from administration
Method: FIG. 3 (a, b, c). Cytotoxicity tests according to Neutral Red Uptake (NRU) method, performed on the three peptides: 1932 (SEQ ID NO 1), 2733 (SEQ ID NO 2) and 1413 (SEQ ID NO 3), at the two concentrations of 5 and 50 microM at +24 and +48 hours from administration. Therefore, concentrations near (5 microM) to or markedly higher (50 microM) than those employed for carrying out the ex-vivo and in vitro tests were used. Cells used are a tumour cell line denominated PE/CA PJ15. Positive control (denoted in the legends by ctrl+), used at a sublethal concentration of 10 microM, is a commercial proapoptotic peptide, Catalog #62206 (Anaspec-USA).
Treated cells were subjected to MTT assay at +24 and +48 hours from peptide inoculation. […] After a 3-hour incubation at 38° C., formazan crystals were solubilized with HCl solution in isopropanol (0.04 N, 200 μl) and the stained solution was measured by a microplate reader (Packard Spectracount™, Packard BioScience Company, Meriden U.S.A.) with a 570 nm filter. […] In the MTT citotoxicity test at +24 and +48 hours, averages of the values obtained by photometer reading of the data related to tested peptides were compared. […] From a determination of the amount of Neutral Red retained in the cells exposed thereto (in comparison with the control) the relative toxicity of the chemical substances at issue can be assessed. […]

[2] = Isoelectric point (Ip) of the peptides; assay type: physicochemical
HIV-1 = settings: for influence on the expression level of Ag p24: subfragments containing the GGNK sequence
HIV = experiment: Peptide stability, duration of effect on HIV replication in in vitro assays; assay type: cell-based
Method: Current drugs in use for the therapy against HIV infections and AIDS, like e.g. the HAART mixture, are administered in daily doses, whereas the action of the peptides of SEQ ID NO 1, 2, and 3 in in vitro assays highlights a duration of the effect on HIV replication of at least four days.
The effect was verified in two in vitro experimental protocols envisaging: • a treatment of the cells with the virus (adsorption phase), washing, inoculation of the peptide in culture and analysis of viral replication over time; • exposure of the cells to the peptide, adsorption of the cells to the virus, washing, and analysis of viral replication over time.

HIV strain BaL = experiment: In vitro exogenous infection of healthy-donor PBMCs with HIV strain BaL, p24 ELISA; settings: at 12 days, 10 microg/ml, regardless of protocol, FIG. 2
HIV strain IIIB = experiment: In vitro exogenous infection of healthy-donor PBMCs with HIV strain IIIB, p24 ELISA
HIV-1 R5 = settings: ex vivo
PE/CA PJ15 cells [3] = experiment: Cytotoxicity test, MTT method; assay type: cell-based; settings: 15 microM, +48 hours from administration
Method: FIG. 4 (a, b, c). Cytotoxicity tests according to the MTT method (see protocols) performed on the three peptides: 1932 (SEQ ID NO 1); 2733 (SEQ ID NO 2) and 1413 (SEQ ID NO 3), and at three concentrations of […] at +24 and +48 hours from administration. There were used concentrations near (5 microM) to, or greater (15, 50 microM) than those used in the ex-vivo and in vitro tests, where average concentration of the three peptides is of about 3.65 microM. Cells used are a tumour cell line denominated PE/CA PJ15. Positive control (denoted in the legends by ctrl+), used at a sublethal concentration of 10 microM, is a commercial proapoptotic peptide, Catalog #62206 (Anaspec-USA).
Treated cells were subjected to MTT assay at +24 and +48 hours from peptide inoculation. […] After a 3-hour incubation at 38° C., formazan crystals were solubilized with HCl solution in isopropanol (0.04 N, 200 μl) and the stained solution was measured by a microplate reader (Packard Spectracount™, Packard BioScience Company, Meriden U.S.A.) with a 570 nm filter. […] In the MTT citotoxicity test at +24 and +48 hours, averages of the values obtained by photometer reading of the data related to tested peptides were compared. […]

| Substance | Ip (isoelectric point) [2] | activities A) HIV-1 activation ex vivo, B) inhibitory activity, C) (HIV-1) | also measured |
| --- | --- | --- | --- |
| DKPKKKPPPPAGPPPPPPPPPGPPPPGP [peptide 2733] |  |  | toxicity with respect to the control (NRU) (PE/CA PJ15 cells [1]): slightly more toxic with respect to the control |
| GPPPQGGN (listed as Homo sapiens) [Peptide 1d] | 5.52 | do not exhibit any of the activities listed at A), B) and C) |  |
| GPPPQGGNKPQGPPPG (listed as Homo sapiens) [Peptide 1c] | 8.75 | exhibit none of the activities listed in points A), B) and C) | influence on the expression level of Ag p24 (HIV-1): in no way influences the expression level of Ag p24 |
| RPPPGPPPPGPPPGP-OH [peptide 1413, RPPPGPPPPGPPPGP] | 9.75 |  | duration of the effect on HIV replication (HIV): at least four; inhibitory activity relative to Con1 (HIV-1; versus Con1 of U.S. Pat. No. 5,981,720, no direct comparison): 130 times; inhibition of viral replication (HIV strain BaL): effective in inhibiting viral replication; inhibition of viral replication (HIV strain IIIB; +8 days of culture, 10 μg/ml): relevant effect of inhibition of viral replication; virus replication over the time considered (p24 antigen) (HIV strain IIIB; peptide 10 microg/ml, FIG. 1): almost equal to zero; persistence of inhibitory effect (HIV strain IIIB; until day 12, FIG. 1): remained unaltered until day 12; p24 values (HIV-1 R5; after 5 days of culture, control cells 76 picograms/ml): 191 picograms/ml; p24 values (HIV-1 R5; day 10, control cells 79 picograms/ml): 67 pg/mL |
| GPPPQGGNKPQGPPPPGKPQ [peptide 1932] |  |  | toxicity with respect to the control (NRU) (PE/CA PJ15 cells [1]): slightly more toxic with respect to the control; toxicity with respect to the control (MTT) (PE/CA PJ15 cells [3]): slightly toxic with respect to the control |
| GPPPQGGNKPQ (listed as Homo sapiens) [Peptide 1b] | 8.75 | exhibit none of the activities listed in points A), B) and C) | influence on the expression level of Ag p24 (HIV-1): in no way influences the expression level of Ag p24 |
| GPPPPGKPQ (listed as Homo sapiens) [Peptide 1e] | 8.75 | do not exhibit any of the activities listed at A), B) and C) |  |
| GPPPQGGNKPQGPPPPG (listed as Homo sapiens) [Peptide 1a] | 8.75 | exhibit none of the activities listed in points A), B) and C) | influence on the expression level of Ag p24 (HIV-1): in no way influences the expression level of Ag p24 |
| APPGARPLPGPPPPGPPPPGP (listed as Sus sp.) [Peptide 7] | 9.79 | do not exhibit any of the activities listed at A), B) and C) |  |
| APPGARPPPGPPPPGPPPPGP (listed as Sus sp.) [Peptide 4] | 9.79 | do not exhibit any of the activities listed at A), B) and C) |  |
| RSPFFDL (listed as Sus sp.) [Peptide 5] | 5.84 | do not exhibit any of the activities listed at A), B) and C) |  |
| APPGARPPPPPPPPADQPQQGP (Sus sp) [Peptide 6] | 5.88 | do not exhibit any of the activities listed at A), B) and C) |  |
